Assay results as given in patent US11053314B2, “Methods to eliminate cancer stem cells by targeting CD47” (The U.S.A, as represented by the Secretary, Department of …, priority 2014, dated 2021).
“Also recorded” adds a separate entry of the source.

Experiments:
[1] = test system: E-cadherin; test: E-cadherin mRNA expression (FIG. 23); assay type: cell-based
Description: FIG. 23 is a bar graph showing that 7N3 peptide increase mRNA expression of E-cadherin.

[2] = test system: bCSCs derived from MDA-MB-231; test: BrdU cell proliferation assay, bCSCs from MDA-MB-231; assay type: cell-based, human; settings: bCSC from MDA-MB-231
Description: To assess the effect of B6H12 on CSC proliferation, bCSC from MDA-MB-231 cells were treated with B6H12 or an isotype-matched control antibody, and proliferation was assessed by bromodeoxyuridine (BrdU) incorporation (FIG. 20A). […] We addressed this question by using a CRISPR vector (based on pX330-U6-Chimeric_BB-CBh-hSpCas9; Cong et al., Science. 339(6121):819-23, 2013, PMID: 23287718; sequence and other information available online at addgene.org/42230/) designed to specifically disrupt the CD47 gene in MDA-MB-231 cells (FIGS. 22A and 22B), using the following gRNA targeting sequence: 5′ CTACTGAAGTATACGTAAG ngg 3′ (PC200.Hcd47.g3a; SEQ ID NO: 2). PC200.Hcd47.g3a was transfected into bCSCs derived from MDA-MB-231 using a NUCLEOFECTOR™ kit (Lonza, Switzerland). CD47 negative cells were sorted using FACS analysis. CD47^neg bCSCs cells were expanded in culture and cell proliferation was measured using BrdU cell proliferation kit (EMD Millipore).
Approximately 8,000 cells were plated per well on 96-well plates and incubated overnight at 37° C. The cells were treated with B6H12 or isotype control antibody (1 μg/ml) for 24 h. BrdU was added for 4 or 24 h as indicated in the figures, and BrdU incorporation was quantified using a BrdU Cell Proliferation Kit according to the manufacturer's instructions (EMD Millipore). […]

[3] = test system: miR let7-family from cellular RNA of MDA-MB-231; test: Real time PCR of let-7 family miRNAs (Ct values, Table 4); assay type: cell-based, human
Description: (FIG. 28C & FIG. 28D) The differentiated and bCSCs cells were treated with B6H12 Ab for 24 h. The total miRNA was extracted and let-7 family miRNAs were analyzed using real time PCR. Relative expression of let-7a-2miRNA in differentiated and bCSCs cells was determined using U6 as control. (FIG. 28E) EGFR mRNA expression on EVs derived from MDA-MB-231, bCSCs, T47D1 and MCF7 cells. The cells were treated with control or B6H12 antibody for 6 h using AB serum media. (FIG. 28F) Protein expression of EGFR in the presence or absence of B6H12 for 24 h using FACS sorted CD44^+/CD24-bCSCs from MDA-MB-231, T47D1 and MCF7 cell lines. FIG. 28G) Relative expression of let-7a-2miRNA from EVs. FIG. 28H) Amplification and expression of let-7a-3 miRNA from EV […].
CSC-depleted MDA-MB-231 and bCSCs were plated at 1×10^6 cells in 6-well plates and were-treated with B6H12 or Isotype control antibody (1 μg/ml) for 36 h. Total RNA was extracted using TriPure (Roche). One μg of total RNA was used for first strand cDNA synthesis using a Maxima kit (2-Step RT PCR, Thermo Scientific) according to the manufacturer's instructions. Real time PCR was performed using SYBR Green (Roche) on an MJ Research Opticon I instrument (Bio-Rad) with the amplification program as described in (Kaur et al., Matrix Biol, 37:49-59, 2014). β2-microglobulin (B2M), HPRT1 or 18S rRNA primers were used as control to normalize mRNA expression (Table 2).

[4] = test system: EGFR; test: EGFR phosphorylation, IP-western blot in MDA-MB-231 cells and bCSCs; assay type: cell-based, human; settings: MDA-MB-231 cells; B6H12 15 min, EGF 5 min
Description: bCSC-depleted MDA-MB-231 cells and bCSCs were plated at 1×10^6 cells in 6-well plates. The cells were serum-starved for 2 hours using serum-free RPMI medium. The cells were pre-treated with B6H12 (1 μg/ml) for 20 min. Cell lysates were made using immunoprecipitation buffer (50 mM Tris-HCl, 150 mM NaCl, and 1% Nonidet P-40) along with 1× Complete Mini-protease inhibitor mixture (Roche Applied Science). Cell lysates were centrifuged at 13,000 rpm for 15 min. A BCA assay (Thermo scientific) was used to quantify total protein. DYNABEADS® magnetic separation beads (Invitrogen) were used for Immunoprecipitation. The DYNABEADS® magnetic separation beads were washed three times with activation buffer. The cell lysates were incubated in DYNABEADS®-protein G along with anti-EGFR and CD47 antibodies (1:500) and incubated for 24 hours at 4° C. on a shaker. The beads were washed three times with lysate buffer and heated at 95° C. for 5 min. The immunoprecipitated cell lysates were loaded on 4-12% NuPAGE gels (Life Technologies), and Western blotting was performed. For immunoprecipitation, primary antibody against phospho-EGFR (1:1000) was used. Normalization of protein lysates used for Western blotting was performed by reprobing with anti-β-actin (1:3000) or tubulin or EGFR antibodies.
MDA-MB-231 cells were pretreated with B6H12 (1 μg/ml) for 15 min. […]

[5] = test system: MDA-MB-231 and bCSCs; test: Mitochondrial energetics, extracellular flux (Seahorse Analyzer); assay type: cell-based, human; settings: 1 μg/ml
Description: The control MDA-MB-231 and bCSCs were plated using XF24 well plates for 1-4 days. Mitochondrial energetics was measured using extracellular flux assay kits. FIG. 12A) B6H12 (1 μg/ml) alters mitochondrial energetics in bCSCs but not in control MDA-MB-231 cells. FIGS. 12B & 12C) Long term treatment of bCSC with B6H12 (1 μg/ml) leads to decrease in basal oxygen consumption rate (OCR) due to decreased ATP associated OCR and decreases reserve mitochondrial metabolic capacity. […] The cells were immunostained using BrdU antibody and mounted with Vectashield DAPI. The confocal images were taken using a Zeiss 710 microscope at 63×. FIGS. 12E & 12F) Control MDA-MB-231 cells and bCSCs were treated with control or B6H12 Ab at 0.1, 1, 2 and 5 […] for 72 h. The cell proliferation was measured using CellTiter 96® Aqueous Non-Radioactive Cell Proliferation Assay (MTS) according to manufacturers' instructions.
B6H12 increased the basal oxygen consumption rate (OCR) at day 1 and day 3 but this was lost at day 4, when both the basal and spare metabolic capacity were decreased. The CD47 ligand TSP1 had less effect than the CD47 antibody. B6H12 decreased asymmetric division and proliferation measured by the MTS assay (FIGS. 12D-12F).

[6] = test system: several breast cancer cell lines; settings: ligation of CD47; cited from earlier work

FIRVVMYEGKK [7N3]
mRNA expression of E-cadherin [1]: increase

PC200.Hcd47.g3a: gRNA targeting sequence CTACTGAAGTATACGTAAG ngg (SEQ ID NO: 2) in CRISPR vector disrupting the CD47 gene (guide CTACTGAAGTATACGTAAGNGG)
DNA synthesis (BrdU incorporation) [2]: diminished

epidermal growth factor [EGF]
Ct value of miR let7-family 7a-2 [3]: 26.09 ± 0.50
Ct value of miR let7-family 7a-3 [3]: 28.88 ± 0.71
Ct value of miR let7-family 7f-2 [3]: 33.24 ± 0.05
Ct value of miR let7-family 7d [3]: 27.38 ± 0.18
Ct value 18S RNA ([3]; reference RNA): 17.65 ± 0.35
EGFR phosphorylation at Y1068 [4]: significantly increased

thrombospondin-1 [TSP1]
mitochondrial energetics [5]: modestly changes; also recorded: less effect
programmed cell death [6]: induce programmed cell death
